# Assays:
# [1] = test system: carrageenin-induced rat paw edema; test: rat carrageenin edema test (carrageenin-induced rat paw edema); assay type: in vivo, Wistar male rat; conditions: 6 rats; for % Inhibition (edema), 2 Hours: 2 hours after carrageenin; for % Inhibition (edema), 3 Hours: 3 hours after carrageenin
# Procedure: When […] of 1% (W/V) λ-carrageenin is subcutaneously injected into the left paw of a Wistar male rat of 120 to 150 g, edema is developed in the left paw with a severity peak at 3 to 4 hours after injection--rat carrageenin edema test. It has been known that this carrageenin-induced rat paw edema is an excellent experimental model for inflammation, where histamine is involved in the development of edema immediately after injection of carrageenin, and subsequently such chemical mediators as prostaglandins, leukotrienes, bradykinin and the like are also involved.
# The effect of sarcophytol-A on edema was investigated employing this experimental model: sarcophytol-A was orally administered to rats one hour before injection of carrageenin and the volume of the thus induced edema in the rat paw was measured by a volumometer 2 or 3 hours after the injection of carrageenin.
# Degrees of edematization are expressed in percentages of paw volume increases after induction with respect to the paw volumes before induction: namely,
# % Edematization=(B-A)/A×100
# wherein A is the paw volume before induction, and B after induction. Further, inhibiting rates (%) are calculated according to the following equation: […]
# [2] = test system: polymorphonuclear leukocytes; test: liberation of lysosomal enzymes (β-glucuronidase) from FMLP-stimulated polymorphonuclear leukocytes; assay type: cell-based, male Wistar rat; conditions: for Liberation (%) of lysosomal enzymes: control (0.1% DMSO) 32.0
# Procedure: When 20 ml of 1% casein is intraperitoneally injected to a rat, a large number of polymorphonuclear leukocytes appear in the peritoneal cavity in 5 hours after the injection. Using these polymorphonuclear leukocytes, it is possible to measure the activity of polymorphonuclear leukocytes in an in vitro system. Thus, polymorphonuclear leukocytes are added into a test tube together with a buffer, and cytochalasin B is then added. Five minutes later, a stimulant formyl-methionyl-leucyl-phenylalanine (FMLP) is added. Then, the polymorphonuclear leukocytes liberate lysosomal enzymes. Simultaneously, some active enzymes and leukotrienes are produced. See Wei Hsueh et al., Nature, 290(23), 710-713 (11981).
# Thus, polymorphonuclear leukocytes (2×10^6) were collected from the peritoneal cavity of a male Wistar rat of 250 to 350 g in body weight which had been stimulated with casein, and incubated in Hepes buffer (pH 7.4) for 5 minutes. After 5 μg of cytochalasin B was added, the mixture was incubated for an additional one minute. To the mixture, there was added an amount of a drug to be tested and, after incubation for 5 minutes, FMLP (0.1 μM) as a stimulant was added. Five minutes later, 2 volumes of ice-cooled phosphate buffer was added to arrest the reaction. The cells were removed by centrifugation at 1,100 rpm for 5 minutes. The supernatant was assayed for β-glucuronidase activity as an index of lysosomal enzymes. Separately, the total β-glucuronidase activity contained in the polymorphonuclear leukocyte was measured. Thus, liberation rates of lysosomal enzymes were determined as percentages of […]. Inhibition rates were calculated in percentage according to the following equation:
# % Inhibition=(1-T/C) ×100
# wherein T and C represent the liberation rates (%) of lysosomes for the treated and control groups, respectively.
# [3] = test system: mast cells; test: release of histamine from mast cells stimulated with compound 48/80; assay type: cell-based, male Wistar rat; conditions: for Histamine Release: control (0.1% DMSO) 62.42
# Procedure: Such histamine release can also be caused by addition of a synthetic stimulant compound 48/80, ATP (adenosine triphosphate), to mast cells.
# Thus, mast cells were collected from the peritoneal cavity of a male Wistar rat of 400 to 450 g in body weight according to conventional procedures. The mast cells (5×10^4) were incubated in Krebs-Ringer buffer (pH 7.4) containing an amount of sarcophytol-A for 10 minutes. The compound 48/80 (100 ng) was added as a stimulant. After incubation for further 10 minutes, cells were removed by centrifugation. Histamine in the supernatant was quantitatively measured according to Shore et al. method: J. Phar. Exp. Ther., 127, 182-186 (1959). Total histamine contained in the mast cells was also measured. Inhibition rates (%) are calculated according to the following equation: […]
# wherein T and C represent the amount of histamine released from mast cells after the treatment with the drug, and the total amount contained in the mast cells, respectively.
# [4] = test system: mast cells; test: release of histamine from mast cells stimulated with protein extracted from the cuticle of ascarids (IgE antigen); assay type: cell-based, rat; conditions: preincubated before addition of protein extracted from the cuticle of ascarids
# [5] = test system: mast cells; conditions: inhibitor of histamine release; cited from earlier work
# [6] = 33 mg/kg oral, 1 h before carrageenin
structure (smiles),measurement,setting,value
"COc1ccc2c(c1)c(CC(=O)O)c(C)n2C(=O)c1ccc(Cl)cc1 [Indomethacin, reference compound]","% Inhibition (edema), 2 Hours","[1]; 10 mg/kg oral, **p<0.01 vs control",43.5 ± 3.5%
same,"% Inhibition (edema), 3 Hours","[1]; 10 mg/kg oral, ***p<0.001 vs control",43.7 ± 3.0%
C/C1=C\C=C(\C(C)C)[C@@H](O)C/C(C)=C/CC/C(C)=C/CC1 [Sarcophytol-A],"% Inhibition (edema), 2 Hours",[1]; [6],-3.0 ± 6.5%
same,"% Inhibition (edema), 3 Hours",[1]; [6],2.4 ± 8.6%
same,"% Inhibition (edema), 2 Hours","[1]; 100 mg/kg oral, 1 h before carrageenin",24.4 ± 7.8%
same,"% Inhibition (edema), 3 Hours","[1]; 100 mg/kg oral, 1 h before carrageenin, **p<0.01 vs control",26.9 ± 6.9%
same,Liberation (%) of lysosomal enzymes,"[2]; 4 μM, FMLP 0.1 μM",29.4%
same,Liberation (%) of lysosomal enzymes,"[2]; 11 μM, FMLP 0.1 μM",27.2%
same,Liberation (%) of lysosomal enzymes,"[2]; 33 μM, FMLP 0.1 μM",26.0%
same,Liberation (%) of lysosomal enzymes,"[2]; 100 μM, FMLP 0.1 μM",13.1%
same,inhibition at 4 µM,"[2]; Rattus norvegicus, Leukocyte, 4 μM, FMLP 0.1 μM, read-out: Inhibition (%) of lysosome liberation",8.1%
same,inhibition at 11 µM,"[2]; Rattus norvegicus, Leukocyte, 11 μM, FMLP 0.1 μM, read-out: Inhibition (%) of lysosome liberation",15.1%
same,inhibition at 33 µM,"[2]; Rattus norvegicus, Leukocyte, 33 μM, FMLP 0.1 μM, read-out: Inhibition (%) of lysosome liberation",18.8%
same,inhibition at 100 µM,"[2]; Rattus norvegicus, Leukocyte, 100 μM, FMLP 0.1 μM, read-out: Inhibition (%) of lysosome liberation",59%
same,liberation of lysosomal enzymes (in words),[2]; preincubated before addition of the stimulant FMLP,positively inhibited
same,Histamine Release,"[3]; 4 μM, compound 48/80 100 ng",65.32 Fluorescence Intensity
same,Histamine Release,"[3]; 11 μM, compound 48/80 100 ng",59.72 Fluorescence Intensity
same,Histamine Release,"[3]; 33 μM, compound 48/80 100 ng",55.72 Fluorescence Intensity
same,Histamine Release,"[3]; 100 μM, compound 48/80 100 ng",41.45 Fluorescence Intensity
same,inhibition at 4 µM,"[3]; Rattus norvegicus, Mast cell, 4 μM, compound 48/80 100 ng",-4.6%
same,inhibition at 11 µM,"[3]; Rattus norvegicus, Mast cell, 11 μM, compound 48/80 100 ng",4.3%
same,inhibition at 33 µM,"[3]; Rattus norvegicus, Mast cell, 33 μM, compound 48/80 100 ng",10.7%
same,inhibition at 100 µM,"[3]; Rattus norvegicus, Mast cell, 100 μM, compound 48/80 100 ng",33.6%
same,release of histamine (in words),[3]; preincubated before addition of stimulant compound 48/80,positively inhibited
same,release of histamine (in words),[4],positively inhibited
O=C(O)c1cc(=O)c2c(OCC(O)COc3cccc4oc(C(=O)O)cc(=O)c34)cccc2o1 [cromoglycate],degranulation of mast cells (in words),[5],inhibits degranulation of mast cells

# Source: patent publication US4906794A, “Lysosome liberation inhibitors and histamine release inhibitors” (Mitsubishi Kasei Corporation, priority 1986, dated 1990)
